Measurements: the supplement of paper PMC10307832

Experiments:
Assay in all cases: relative viability (nuclei count vs DMSO), 5 days (fraction); higher = more cells survive
Linifanib + Linsitinib = compound: Cc1ccc(F)c(NC(=O)Nc2ccc(-c3cccc4[nH]nc(N)c34)cc2)c1 [Linifanib] + C[C@]1(O)C[C@@H](c2nc(-c3ccc4ccc(-c5ccccc5)nc4c3)c3c(N)nccn32)C1 [Linsitinib] (partner 1 µM)
Summary of the method: (§1)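 A single step with final 0.05% Triton X-100, 1% formaldehyde and 1 ug/ml Hoechst fixed the cells and stained nuclei 5 days after treatment. Lung cancer cell lines in 1536-well plates had been treated by pin tool the day after seeding with one drug alone or a fixed anchor-drug dose plus five library-drug doses (not always all listed) in √10 steps, and nuclei were counted on 4× images. Relative viability is the ratio of nuclei in treated wells to nuclei in vehicle wells, taken as the median of duplicate plates.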

Linifanib + Olaparib = compound: Cc1ccc(F)c(NC(=O)Nc2ccc(-c3cccc4[nH]nc(N)c34)cc2)c1 [Linifanib] + O=C(c1cc(Cc2n[nH]c(=O)c3ccccc23)ccc1F)N1CCN(C(=O)C2CC2)CC1 [Olaparib] (partner 8 µM)
Summary of the method: as §1

Linifanib + Foretinib = compound: Cc1ccc(F)c(NC(=O)Nc2ccc(-c3cccc4[nH]nc(N)c34)cc2)c1 [Linifanib] + COc1cc2c(Oc3ccc(NC(=O)C4(C(=O)Nc5ccc(F)cc5)CC4)cc3F)ccnc2cc1OCCCN1CCOCC1 [Foretinib] (partner 0.25 µM)
Summary of the method: as §1

Linifanib + Pictilisib = compound: Cc1ccc(F)c(NC(=O)Nc2ccc(-c3cccc4[nH]nc(N)c34)cc2)c1 [Linifanib] + CS(=O)(=O)N1CCN(Cc2cc3nc(-c4cccc5[nH]ncc45)nc(N4CCOCC4)c3s2)CC1 [Pictilisib] (partner 1 µM)
Summary of the method: as §1

Linifanib + Alpelisib = compound: Cc1ccc(F)c(NC(=O)Nc2ccc(-c3cccc4[nH]nc(N)c34)cc2)c1 [Linifanib] + Cc1nc(NC(=O)N2CCC[C@H]2C(N)=O)sc1-c1ccnc(C(C)(C)C(F)(F)F)c1 [Alpelisib] (partner 2 µM)
Summary of the method: as §1

Linifanib + Bortezomib = compound: Cc1ccc(F)c(NC(=O)Nc2ccc(-c3cccc4[nH]nc(N)c34)cc2)c1 [Linifanib] + CC(C)C[C@H](NC(=O)[C@H](Cc1ccccc1)NC(=O)c1cnccn1)B(O)O [Bortezomib] (partner 0.002 µM)
Summary of the method: as §1

Linifanib + Lapatinib = compound: Cc1ccc(F)c(NC(=O)Nc2ccc(-c3cccc4[nH]nc(N)c34)cc2)c1 [Linifanib] + CS(=O)(=O)CCNCc1ccc(-c2ccc3ncnc(Nc4ccc(OCc5cccc(F)c5)c(Cl)c4)c3c2)o1 [Lapatinib] (partner 2 µM)
Summary of the method: as §1

Linifanib + Crizotinib = compound: Cc1ccc(F)c(NC(=O)Nc2ccc(-c3cccc4[nH]nc(N)c34)cc2)c1 [Linifanib] + C[C@@H](Oc1cc(-c2cnn(C3CCNCC3)c2)cnc1N)c1c(Cl)ccc(F)c1Cl [Crizotinib] (partner 1 µM)
Summary of the method: as §1

Linifanib + Navitoclax = compound: Cc1ccc(F)c(NC(=O)Nc2ccc(-c3cccc4[nH]nc(N)c34)cc2)c1 [Linifanib] + CC1(C)CCC(c2ccc(Cl)cc2)=C(CN2CCN(c3ccc(C(=O)NS(=O)(=O)c4ccc(N[C@H](CCN5CCOCC5)CSc5ccccc5)c(S(=O)(=O)C(F)(F)F)c4)cc3)CC2)C1 [Navitoclax] (partner 0.5 µM)
Summary of the method: as §1

Linifanib = compound: Cc1ccc(F)c(NC(=O)Nc2ccc(-c3cccc4[nH]nc(N)c34)cc2)c1 [Linifanib]
Summary of the method: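 Viability here means nuclei in treated wells divided by nuclei in vehicle wells, reported as the median across plates. Only plates with control CV below 25% and at least one doubling passed. Lung cancer cell lines in 1536-well plates were exposed to five √10-spaced library-drug doses for 5 days and counted from 4× Hoechst images in MetaXpress.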

Linifanib + AZD7762 = compound: Cc1ccc(F)c(NC(=O)Nc2ccc(-c3cccc4[nH]nc(N)c34)cc2)c1 [Linifanib] + NC(=O)Nc1cc(-c2cccc(F)c2)sc1C(=O)N[C@H]1CCCNC1 [AZD7762] (partner 0.2 µM)
Summary of the method: as §1

Linifanib + Vorinostat = compound: Cc1ccc(F)c(NC(=O)Nc2ccc(-c3cccc4[nH]nc(N)c34)cc2)c1 [Linifanib] + O=C(CCCCCCC(=O)Nc1ccccc1)NO [Vorinostat] (partner 1 µM)
Summary of the method: as §1

NCI-H1299
relative viability (Linifanib + Linsitinib; first compound 0.03162 µM): 0.975
relative viability (Linifanib + Linsitinib; first compound 0.1 µM): 0.996
relative viability (Linifanib + Linsitinib; first compound 0.3162 µM): 0.998
relative viability (Linifanib + Olaparib; first compound 0.03162 µM): 0.978
relative viability (Linifanib + Olaparib; first compound 0.1 µM): 0.958
relative viability (Linifanib + Olaparib; first compound 0.3162 µM): 0.959
relative viability (Linifanib + Foretinib; first compound 0.03162 µM): 1.1
relative viability (Linifanib + Foretinib; first compound 0.1 µM): 1.11
relative viability (Linifanib + Foretinib; first compound 0.3162 µM): 1.04
relative viability (Linifanib + Pictilisib; first compound 0.03162 µM): 0.575
relative viability (Linifanib + Pictilisib; first compound 0.1 µM): 0.885
relative viability (Linifanib + Pictilisib; first compound 0.3162 µM): 0.829
relative viability (Linifanib + Alpelisib; first compound 0.03162 µM): 1.11
relative viability (Linifanib + Alpelisib; first compound 0.1 µM): 1.02
relative viability (Linifanib + Alpelisib; first compound 0.3162 µM): 1.06
relative viability (Linifanib + Bortezomib; first compound 0.03162 µM): 1.03
relative viability (Linifanib + Bortezomib; first compound 0.1 µM): 1.01
relative viability (Linifanib + Bortezomib; first compound 0.3162 µM): 1.02
relative viability (Linifanib + Lapatinib; first compound 0.03162 µM): 0.951
relative viability (Linifanib + Lapatinib; first compound 0.1 µM): 0.95
relative viability (Linifanib + Lapatinib; first compound 0.3162 µM): 0.994
relative viability (Linifanib + Crizotinib; first compound 0.03162 µM): 0.899
relative viability (Linifanib + Crizotinib; first compound 0.1 µM): 0.956
relative viability (Linifanib + Crizotinib; first compound 0.3162 µM): 0.97
relative viability (Linifanib + Navitoclax; first compound 0.03162 µM): 1.06
relative viability (Linifanib + Navitoclax; first compound 0.1 µM): 1.08
relative viability (Linifanib + Navitoclax; first compound 0.3162 µM): 1
relative viability (Linifanib; 0.03162 µM): 1.02
relative viability (Linifanib; 0.1 µM): 1.02
relative viability (Linifanib; 0.3162 µM): 1.03

NCI-H1703
relative viability (Linifanib + Linsitinib; first compound 0.03162 µM): 0.141
relative viability (Linifanib + Linsitinib; first compound 0.1 µM): 0.27
relative viability (Linifanib + Linsitinib; first compound 0.3162 µM): 0.129
relative viability (Linifanib + Olaparib; first compound 0.03162 µM): 0.151
relative viability (Linifanib + Olaparib; first compound 0.1 µM): 0.269
relative viability (Linifanib + Olaparib; first compound 0.3162 µM): 0.125
relative viability (Linifanib + Foretinib; first compound 0.1 µM): 0.345
relative viability (Linifanib + Foretinib; first compound 0.3162 µM): 0.294
relative viability (Linifanib + Pictilisib; first compound 0.03162 µM): 0.223
relative viability (Linifanib + Pictilisib; first compound 0.1 µM): 0.211
relative viability (Linifanib + Pictilisib; first compound 0.3162 µM): 0.242
relative viability (Linifanib + Alpelisib; first compound 0.03162 µM): 0.205
relative viability (Linifanib + Alpelisib; first compound 0.1 µM): 0.293
relative viability (Linifanib + Alpelisib; first compound 0.3162 µM): 0.158
relative viability (Linifanib + Bortezomib; first compound 0.03162 µM): 0.175
relative viability (Linifanib + Bortezomib; first compound 0.1 µM): 0.243
relative viability (Linifanib + Bortezomib; first compound 0.3162 µM): 0.154
relative viability (Linifanib + Lapatinib; first compound 0.1 µM): 0.438
relative viability (Linifanib + Lapatinib; first compound 0.3162 µM): 0.267
relative viability (Linifanib + Crizotinib; first compound 0.1 µM): 0.46
relative viability (Linifanib + Crizotinib; first compound 0.3162 µM): 0.215
relative viability (Linifanib + AZD7762; first compound 0.1 µM): 0.147
relative viability (Linifanib + AZD7762; first compound 0.3162 µM): 0.118
relative viability (Linifanib + Navitoclax; first compound 0.03162 µM): 0.277
relative viability (Linifanib + Navitoclax; first compound 0.1 µM): 0.398
relative viability (Linifanib + Navitoclax; first compound 0.3162 µM): 0.257
relative viability (Linifanib; 0.03162 µM): 0.219
relative viability (Linifanib; 0.1 µM): 0.524
relative viability (Linifanib; 0.3162 µM): 0.213

IA-LM
relative viability (Linifanib + Linsitinib; first compound 0.03162 µM): 0.611
relative viability (Linifanib + Linsitinib; first compound 0.1 µM): 0.46
relative viability (Linifanib + Linsitinib; first compound 0.3162 µM): 0.55
relative viability (Linifanib + Olaparib; first compound 0.03162 µM): 0.901
relative viability (Linifanib + Olaparib; first compound 0.1 µM): 0.81
relative viability (Linifanib + Olaparib; first compound 0.3162 µM): 0.8
relative viability (Linifanib + Foretinib; first compound 0.03162 µM): 1.2
relative viability (Linifanib + Foretinib; first compound 0.1 µM): 1.18
relative viability (Linifanib + Foretinib; first compound 0.3162 µM): 1.15
relative viability (Linifanib + Pictilisib; first compound 0.03162 µM): 0.313
relative viability (Linifanib + Pictilisib; first compound 0.1 µM): 0.319
relative viability (Linifanib + Pictilisib; first compound 0.3162 µM): 0.338
relative viability (Linifanib + Alpelisib; first compound 0.03162 µM): 0.588
relative viability (Linifanib + Alpelisib; first compound 0.1 µM): 0.872
relative viability (Linifanib + Alpelisib; first compound 0.3162 µM): 0.643
relative viability (Linifanib + Vorinostat; first compound 0.03162 µM): 0.841
relative viability (Linifanib + Vorinostat; first compound 0.1 µM): 0.906
relative viability (Linifanib + Vorinostat; first compound 0.3162 µM): 1.33
relative viability (Linifanib + Bortezomib; first compound 0.03162 µM): 0.752
relative viability (Linifanib + Bortezomib; first compound 0.1 µM): 0.974
relative viability (Linifanib + Bortezomib; first compound 0.3162 µM): 0.846
relative viability (Linifanib + Lapatinib; first compound 0.03162 µM): 0.718
relative viability (Linifanib + Lapatinib; first compound 0.3162 µM): 0.713
relative viability (Linifanib + Crizotinib; first compound 0.03162 µM): 0.806
relative viability (Linifanib + Crizotinib; first compound 0.3162 µM): 0.768
relative viability (Linifanib + Navitoclax; first compound 0.03162 µM): 0.855
relative viability (Linifanib + Navitoclax; first compound 0.1 µM): 0.947
relative viability (Linifanib + Navitoclax; first compound 0.3162 µM): 0.656
relative viability (Linifanib; 0.03162 µM): 0.983
relative viability (Linifanib; 0.1 µM): 0.84
relative viability (Linifanib; 0.3162 µM): 0.914
